The source made the active and inactive calls. The rule behind the calls is not given here.
Experiments:
Assay in all cases: SILAC ABPP selectivity across cellular hydrolases – LC-MS, mouse cells, selectivity assay for LYPLA1 inhibitor project, late-stage follow-up (AID 504522)
[1] = molecular target: Platelet-activating factor acetylhydrolase 2, cytoplasmic (Mus musculus) (UniProt Q8VDG7); conditions: serine hydrolase panel, PAFAH2, hits give low values
[2] = system: PLA2G6; conditions: serine hydrolase panel, hits give low values
[3] = system: PAFAH1B3; conditions: serine hydrolase panel, hits give low values
[4] = system: PPME1; conditions: serine hydrolase panel, hits give low values
[5] = system: FASN; conditions: serine hydrolase panel, hits give low values
[6] = system: ACOT7; conditions: serine hydrolase panel, hits give low values
[7] = system: SERHL; conditions: serine hydrolase panel, hits give low values
[8] = system: DPP7; conditions: serine hydrolase panel, hits give low values
[9] = system: SIAE; conditions: serine hydrolase panel, hits give low values
[10] = system: LYPLA2; conditions: serine hydrolase panel, hits give low values
[11] = system: ABHD6; conditions: serine hydrolase panel, hits give low values
[12] = system: AADACL1; conditions: serine hydrolase panel, hits give low values
[13] = system: FAM108B1; conditions: serine hydrolase panel, hits give low values
[14] = system: DDHD1; conditions: serine hydrolase panel, hits give low values
[15] = system: FAAH; conditions: serine hydrolase panel, hits give low values
[16] = system: DPP9; conditions: serine hydrolase panel, hits give low values
[17] = system: LYPLA3; conditions: serine hydrolase panel, hits give low values
[18] = system: PNPLA6; conditions: serine hydrolase panel, hits give low values
[19] = system: PARL; conditions: serine hydrolase panel, hits give low values
[20] = system: DPP8; conditions: serine hydrolase panel, hits give low values
[21] = system: APEH; conditions: serine hydrolase panel, hits give low values
[22] = system: LYPLA1; conditions: serine hydrolase panel, hits give low values
[23] = system: PNPLA8; conditions: serine hydrolase panel, hits give low values
[24] = system: BAT5; conditions: serine hydrolase panel, hits give low values
[25] = system: PREPL; conditions: serine hydrolase panel, hits give low values
[26] = molecular target: Prolyl endopeptidase (Mus musculus) (UniProt Q9QUR6); conditions: serine hydrolase panel, PREP, hits give low values
Sequence of Prolyl endopeptidase (Mus musculus) (Q9QUR6 whole entry, looked up): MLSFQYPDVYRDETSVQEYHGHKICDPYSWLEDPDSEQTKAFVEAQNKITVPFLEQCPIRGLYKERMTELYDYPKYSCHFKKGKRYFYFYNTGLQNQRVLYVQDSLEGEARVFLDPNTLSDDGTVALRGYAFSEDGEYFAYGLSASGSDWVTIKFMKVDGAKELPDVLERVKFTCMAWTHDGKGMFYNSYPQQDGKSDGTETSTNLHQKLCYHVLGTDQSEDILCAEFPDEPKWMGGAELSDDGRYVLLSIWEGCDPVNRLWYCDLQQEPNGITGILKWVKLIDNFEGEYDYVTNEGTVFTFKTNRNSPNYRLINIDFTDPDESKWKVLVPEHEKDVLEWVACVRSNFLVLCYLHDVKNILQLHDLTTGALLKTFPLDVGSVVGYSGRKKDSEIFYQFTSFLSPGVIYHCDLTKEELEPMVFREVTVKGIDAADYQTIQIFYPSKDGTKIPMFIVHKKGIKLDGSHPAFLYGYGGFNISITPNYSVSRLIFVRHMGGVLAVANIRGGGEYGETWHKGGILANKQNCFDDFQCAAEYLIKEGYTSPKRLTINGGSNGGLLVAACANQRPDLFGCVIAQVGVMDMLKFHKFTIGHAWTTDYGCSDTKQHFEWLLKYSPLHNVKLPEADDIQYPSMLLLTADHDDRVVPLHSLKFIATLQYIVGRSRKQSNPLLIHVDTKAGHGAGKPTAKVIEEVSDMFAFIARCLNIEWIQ

[27] = system: ABHD12; conditions: serine hydrolase panel, hits give low values
[28] = system: ACOT1; conditions: serine hydrolase panel, hits give low values
[29] = system: PRCP; conditions: serine hydrolase panel, hits give low values
[30] = system: PAFAH1B2; conditions: serine hydrolase panel, hits give low values
[31] = system: DPP4; conditions: serine hydrolase panel, hits give low values
[32] = system: CTSA; conditions: serine hydrolase panel, hits give low values
[33] = system: ACOT2; conditions: serine hydrolase panel, hits give low values
[34] = system: LIPA; conditions: serine hydrolase panel, hits give low values
[35] = system: ESD; conditions: serine hydrolase panel, hits give low values
[36] = system: ABHD11; conditions: serine hydrolase panel, hits give low values
[37] = system: ABHD10; conditions: serine hydrolase panel, hits give low values
[38] = system: LACTB; conditions: serine hydrolase panel, hits give low values
[39] = system: IAH1; conditions: serine hydrolase panel, hits give low values

Sequence of Platelet-activating factor acetylhydrolase 2, cytoplasmic (Mus musculus) (Q8VDG7 whole entry, looked up): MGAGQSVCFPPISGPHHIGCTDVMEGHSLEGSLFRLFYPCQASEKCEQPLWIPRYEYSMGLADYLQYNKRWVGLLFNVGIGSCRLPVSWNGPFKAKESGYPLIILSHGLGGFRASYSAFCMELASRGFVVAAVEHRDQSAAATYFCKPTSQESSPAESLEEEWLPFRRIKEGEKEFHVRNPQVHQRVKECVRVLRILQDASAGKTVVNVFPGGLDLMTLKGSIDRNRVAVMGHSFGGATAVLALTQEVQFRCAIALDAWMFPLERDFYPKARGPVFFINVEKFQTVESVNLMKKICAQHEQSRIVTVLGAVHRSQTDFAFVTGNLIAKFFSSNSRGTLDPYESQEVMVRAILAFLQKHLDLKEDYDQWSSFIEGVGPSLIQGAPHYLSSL

Compound: COCC1CCCCN1C(=O)n1ncc(C(O)(c2ccccc2)c2ccccc2)n1 (centres undefined)
- SILAC ratio (probe-treated/control) [1]: 1.3 (inactive)
- SILAC ratio (probe-treated/control) [2]: 1.4 (inactive)
- SILAC ratio (probe-treated/control) [3]: 1.3 (inactive)
- SILAC ratio (probe-treated/control) [4]: 1.5 (inactive)
- SILAC ratio (probe-treated/control) [5]: 1.5 (inactive)
- SILAC ratio (probe-treated/control) [6]: 1.5 (inactive)
- SILAC ratio (probe-treated/control) [7]: 1.5 (inactive)
- SILAC ratio (probe-treated/control) [8]: 1.3 (inactive)
- SILAC ratio (probe-treated/control) [9]: 1.5 (inactive)
- SILAC ratio (probe-treated/control) [10]: 1.5 (inactive)
- SILAC ratio (probe-treated/control) [11]: 0.9 (inactive)
- SILAC ratio (probe-treated/control) [12]: 1.3 (inactive)
- SILAC ratio (probe-treated/control) [13]: 1.3 (inactive)
- SILAC ratio (probe-treated/control) [14]: 2 (inactive)
- SILAC ratio (probe-treated/control) [15]: 1.5 (inactive)
- SILAC ratio (probe-treated/control) [16]: 1.5 (inactive)
- SILAC ratio (probe-treated/control) [17]: 1.5 (inactive)
- SILAC ratio (probe-treated/control) [18]: 1.4 (inactive)
- SILAC ratio (probe-treated/control) [19]: 1.5 (inactive)
- SILAC ratio (probe-treated/control) [20]: 1.5 (inactive)
- SILAC ratio (probe-treated/control) [21]: 1.4 (inactive)
- SILAC ratio (probe-treated/control) [22]: 1.5 (inactive)
- SILAC ratio (probe-treated/control) [23]: 1.3 (inactive)
- SILAC ratio (probe-treated/control) [24]: 1.5 (inactive)
- SILAC ratio (probe-treated/control) [25]: 1.2 (inactive)
- SILAC ratio (probe-treated/control) [26]: 1.4 (inactive)
- SILAC ratio (probe-treated/control) [27]: 1.3 (inactive)
- SILAC ratio (probe-treated/control) [28]: 1 (inactive)
- SILAC ratio (probe-treated/control) [29]: 1.5 (inactive)
- SILAC ratio (probe-treated/control) [30]: 1.6 (inactive)
- SILAC ratio (probe-treated/control) [31]: 1 (inactive)
- SILAC ratio (probe-treated/control) [32]: 1.3 (inactive)
- SILAC ratio (probe-treated/control) [33]: 1.1 (inactive)
- SILAC ratio (probe-treated/control) [34]: 1.4 (inactive)
- SILAC ratio (probe-treated/control) [35]: 1.4 (inactive)
- SILAC ratio (probe-treated/control) [36]: 0.02
- SILAC ratio (probe-treated/control) [37]: 1.3 (inactive)
- SILAC ratio (probe-treated/control) [38]: 1.5 (inactive)
- SILAC ratio (probe-treated/control) [39]: 1.4 (inactive)
